Target: T1, soybean lipoxygenase (LOX) (Glycine max, UniProt P08170)
T1 construct: gene LOX1.1
T1 sequence (P08170 1-839): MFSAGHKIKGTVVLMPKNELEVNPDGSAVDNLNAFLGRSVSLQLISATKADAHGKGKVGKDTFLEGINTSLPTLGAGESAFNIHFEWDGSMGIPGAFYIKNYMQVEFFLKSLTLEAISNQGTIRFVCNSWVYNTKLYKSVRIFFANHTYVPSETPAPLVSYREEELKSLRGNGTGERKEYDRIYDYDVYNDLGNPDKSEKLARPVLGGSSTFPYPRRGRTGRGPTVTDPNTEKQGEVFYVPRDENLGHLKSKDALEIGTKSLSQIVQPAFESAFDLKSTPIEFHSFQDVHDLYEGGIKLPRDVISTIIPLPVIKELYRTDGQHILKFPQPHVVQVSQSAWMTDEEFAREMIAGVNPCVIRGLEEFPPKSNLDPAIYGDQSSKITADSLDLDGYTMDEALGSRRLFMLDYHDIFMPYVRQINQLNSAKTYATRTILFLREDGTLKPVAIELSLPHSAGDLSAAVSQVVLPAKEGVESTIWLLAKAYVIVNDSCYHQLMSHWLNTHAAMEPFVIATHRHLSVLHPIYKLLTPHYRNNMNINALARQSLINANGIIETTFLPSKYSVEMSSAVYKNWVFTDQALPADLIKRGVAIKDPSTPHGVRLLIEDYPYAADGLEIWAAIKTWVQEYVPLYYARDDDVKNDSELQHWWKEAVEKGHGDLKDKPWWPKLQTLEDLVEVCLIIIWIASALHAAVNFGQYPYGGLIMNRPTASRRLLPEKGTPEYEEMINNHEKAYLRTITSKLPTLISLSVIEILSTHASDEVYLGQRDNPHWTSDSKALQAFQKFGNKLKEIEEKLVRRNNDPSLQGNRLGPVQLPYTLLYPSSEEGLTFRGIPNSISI
Test: UV assay at […] nm, sodium linoleate oxidation, pH […]
Assay type: biochemical

| SMILES | IC50 |
| --- | --- |
| O=C1C(=NNC(=S)Nc2ccccc2)c2cc(F)ccc2N1CN1CCCCC1 [FMp] | 54 µM |
| COc1ccc2c(c1)/C(=N/NC(=S)Nc1ccccc1)C(=O)N2 [M] | 60.5 µM |

Source: PMC9221192, “The Prophylactic and Multimodal Activity of Two Isatin Thiosemicarbazones against Alzheimer’s Disease In Vitro” (Brain Sciences, 2022)
